Experiments:
[1] = slightly soluble in water; cited from earlier work
[2] = system: animal models of skin inflammation; conditions: in vivo; cited from earlier work
skin = conditions: cited from earlier work
[3] = Solubility of pimecrolimus in different solvents (HPLC after 24-hour equilibration at 25 °C); format: physicochemical
Method: FIG. 2: Solubility of pimecrolimus in different solvents. […] Form B refers to the anhydrous, crystalline polymorph B of pimecrolimus that has been used in the manufacture of the composition according to the invention. The legend in the lower table defines the terms used for the categorization of solubility.
The solubility of pimecrolimus in different solvents was determined by HPLC after 24-hour equilibration (vibration) at 25.0+/−0.5° C. After the vibration, the precipitate was separated from the solution, dried and investigated by DSC and by X-ray diffraction pattern.

Structure (SMILES) | Solubility in water [1] [ml/100 ml H2O] | Efficacy in animal models of skin inflammation [2] | Potential for systemic immunosuppression (skin; compared with cyclosporin A and tacrolimus) | Anti-inflammatory activity in the skin, topical (skin; compared with cyclosporin A) | Skin atrophy (skin; in contrast to steroids) | Solubility in excipients that can be used in semi-solid formulations for dermal and ophthalmic use [3] | Solubility in aqueous solutions and water ([3]; 24-hour equilibration at 25.0+/-0.5 °C, HPLC, FIG. 2)
OCCc1ccccc1 [Phenyl ethyl alcohol, 2-phenyl-ethan-1-ol] | 2 |  |  |  |  |  | 
CC[C@@H]1/C=C(\C)C[C@H](C)C[C@H](OC)[C@H]2O[C@@](O)(C(=O)C(=O)N3CCCC[C@H]3C(=O)O[C@H](/C(C)=C/[C@@H]3CC[C@H](Cl)[C@H](OC)C3)[C@H](C)[C@@H](O)CC1=O)[C@H](C)C[C@@H]2OC [pimecrolimus, (1R,9S,12S,13R,14S,17R,18E,21S,23S,24R,25S,27R)-12-[(1E)-2-{(1R,3R,4S)-4-chloro-3-methoxycyclohexyl}-1-methylvinyl]-17-ethyl-1,14-dihydroxy-23,25-dimethoxy-13,19,21,27-tetramethyl-11,28-dioxa-4-aza-tricyclo[22.3.1.04,9]octacos-18-ene-2,3,10,16-tetraone] |  | highly effective | lower potential for systemic immunosuppression than cyclosporin A and tacrolimus | greater anti-inflammatory activity in the skin than cyclosporin A | does not induce skin atrophy | very poor | insoluble

From US20220218675A1, “TREATMENT OF OCULAR DISEASE” (PREMARK PHARMA GMBH, priority 2019, published 2022)
